Measured values as given in patent US8802597B2, “Herbicidal pyrimidines” (E I du Pont de Nemours and Company, priority 2003, dated 2014).
Like-named read-outs stand apart in the source and are kept apart here.

How the values were obtained:
Assay type in all cases: in vivo
[1] = system: duck salad (Heteranthera limosa); assay: Test B flooded paddy test; settings: Heteranthera limosa, Flood, 1000 g ai/ha; scale 0 to 100; read-out: Plant response rating, Ducksalad
How it was run: (§1)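 Plants were grown to the 2-leaf stage before treatment, then kept in a greenhouse for 13 to 15 days. Injury was rated visually against untreated controls on a 0 to 100 scale, where 0 is no effect and 100 is complete control.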

[2] = system: umbrella sedge (Cyperus difformis); assay: Test B flooded paddy test; settings: Cyperus difformis, Flood, 1000 g ai/ha; scale 0 to 100; read-out: Plant response rating, Sedge, Umbrella
How it was run: as §1

[3] = system: barnyardgrass (Echinochloa crus-galli); assay: Test B flooded paddy test; settings: Echinochloa crus-galli, Flood, 1000 g ai/ha; scale 0 (no effect) to 100 (complete control); read-out: Plant response rating, Barnyardgrass
How it was run: as §1

rice (Oryza sativa) = assay: Test B flooded paddy test; settings: Oryza sativa, Flood, 1000 g ai/ha; scale 0 to 100; read-out: Plant response rating, Rice
How it was run: as §1

[4] = system: pigweed (Amaranthus retroflexus); assay: Test B pre/postemergence; settings: Amaranthus retroflexus; for pest or weed control at 125 g/ha: 125 g ai/ha; for pest or weed control at 500 g/ha: 500 g ai/ha
How it was run: (§2)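 Greenhouse whole-plant test; surfactant-containing non-phytotoxic solvent formulation; pre- and postemergence applications made simultaneously; post plants 2–18 cm, 1- to 4-leaf; visual scoring at 13–15 days on 0–100 scale relative to controls.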

[5] = system: wheat (Triticum aestivum); assay: Test B pre/postemergence; settings: Triticum aestivum; for plant injury at 125 g/ha: 125 g ai/ha; for plant injury at 500 g/ha: 500 g ai/ha
How it was run: as §2

[6] = system: morningglory (Ipomoea coccinea); assay: Test B pre/postemergence; settings: Ipomoea; for pest or weed control at 125 g/ha: 125 g ai/ha; for pest or weed control at 500 g/ha: 500 g ai/ha
How it was run: as §2

[7] = system: crabgrass (Digitaria sanguinalis); assay: Test B pre/postemergence; settings: Digitaria sanguinalis; for pest or weed control at 125 g/ha: 125 g ai/ha; for pest or weed control at 500 g/ha: 500 g ai/ha
How it was run: as §2

[8] = system: velvetleaf (Abutilon theophrasti); assay: Test B pre/postemergence; settings: Abutilon theophrasti; for pest or weed control at 125 g/ha: 125 g ai/ha; for pest or weed control at 500 g/ha: 500 g ai/ha
How it was run: as §2

[9] = system: lambsquarters (Chenopodium album); assay: Test B pre/postemergence; settings: Chenopodium album; for pest or weed control at 125 g/ha: 125 g ai/ha; for pest or weed control at 500 g/ha: 500 g ai/ha
How it was run: as §2

[10] = system: barnyardgrass (Echinochloa crus-galli); assay: Test B pre/postemergence; settings: Echinochloa crus-galli; for pest or weed control at 125 g/ha: 125 g ai/ha; for pest or weed control at 500 g/ha: 500 g ai/ha
How it was run: as §2

[11] = system: giant foxtail (Setaria faberii); assay: Test B pre/postemergence; settings: Setaria faberi; for pest or weed control at 125 g/ha: 125 g ai/ha; for pest or weed control at 500 g/ha: 500 g ai/ha
How it was run: as §2

[12] = system: cocklebur (Xanthium strumarium); assay: Test B pre/postemergence; settings: Xanthium strumarium; for pest or weed control at 125 g/ha: 125 g ai/ha; for pest or weed control at 500 g/ha: 500 g ai/ha
How it was run: as §2

[13] = system: Surinam grass (Brachiaria decumbens); assay: Test B pre/postemergence; settings: Urochloa decumbens; for pest or weed control at 125 g/ha: 125 g ai/ha; for pest or weed control at 500 g/ha: 500 g ai/ha
How it was run: as §2

corn (Zea mays) = assay: Test B pre/postemergence; settings: Zea mays
How it was run: as §2

[14] = system: blackgrass (Alopecurus myosuroides); assay: Test B postemergence; settings: Alopecurus myosuroides, post-emergence
How it was run: as §2

wild oat (Avena fatua) = assay: Test B postemergence; settings: Avena fatua, post-emergence
How it was run: as §2

COC(=O)c1nc(C2CC2)nc(N)c1Br [Compound 2, methyl 6-amino-5-bromo-2-cyclopropyl-4-pyrimidinecarboxylate]
pest or weed control at 1000 g/ha [1]: 90%
pest or weed control at 1000 g/ha [2]: 90%
pest or weed control at 1000 g/ha [3]: 90%
plant injury at 1000 g/ha (rice (Oryza sativa)): 60%
pest or weed control at 125 g/ha ([4]; post-emergence, Postemergence, scale 0 to 100 (0 no effect, 100 complete control), read-out: Pigweed plant response rating): 100%
pest or weed control at 500 g/ha ([4]; post-emergence, Postemergence, scale 0 to 100, read-out: Plant response rating, Pigweed): 100%
pest or weed control at 125 g/ha ([4]; pre-emergence, Preemergence, scale 0 to 100 (0 no effect, 100 complete control), read-out: Plant response rating, Pigweed): 90%
pest or weed control at 500 g/ha ([4]; pre-emergence, Preemergence, scale 0 to 100 (0 no effect, 100 complete control), read-out: Pigweed plant response rating): 100%
plant injury at 125 g/ha ([5]; post-emergence, Postemergence, scale 0 to 100 (0 no effect, 100 complete control), read-out: Wheat plant response rating): 40%
plant injury at 500 g/ha ([5]; post-emergence, Postemergence, scale 0 to 100, read-out: Plant response rating, Wheat): 70%
plant injury at 125 g/ha ([5]; pre-emergence, Preemergence, scale 0 to 100 (0 no effect, 100 complete control), read-out: Plant response rating, Wheat): 60%
plant injury at 500 g/ha ([5]; pre-emergence, Preemergence, scale 0 to 100 (0 no effect, 100 complete control), read-out: Wheat plant response rating): 70%
pest or weed control at 125 g/ha ([6]; post-emergence, Postemergence, scale 0 to 100 (0 no effect, 100 complete control), read-out: Morningglory plant response rating): 100%
pest or weed control at 500 g/ha ([6]; post-emergence, Postemergence, scale 0 to 100, read-out: Plant response rating, Morningglory): 100%
pest or weed control at 125 g/ha ([6]; pre-emergence, Preemergence, scale 0 to 100 (0 no effect, 100 complete control), read-out: Plant response rating, Morningglory): 100%
pest or weed control at 500 g/ha ([6]; pre-emergence, Preemergence, scale 0 to 100 (0 no effect, 100 complete control), read-out: Morningglory plant response rating): 100%
pest or weed control at 125 g/ha ([7]; post-emergence, Postemergence, scale 0 to 100 (0 no effect, 100 complete control), read-out: Crabgrass plant response rating): 90%
pest or weed control at 500 g/ha ([7]; post-emergence, Postemergence, scale 0 to 100, read-out: Plant response rating, Crabgrass): 90%
pest or weed control at 125 g/ha ([7]; pre-emergence, Preemergence, scale 0 to 100 (0 no effect, 100 complete control), read-out: Plant response rating, Crabgrass): 90%
pest or weed control at 500 g/ha ([7]; pre-emergence, Preemergence, scale 0 to 100 (0 no effect, 100 complete control), read-out: Crabgrass plant response rating): 90%
pest or weed control at 125 g/ha ([8]; post-emergence, Postemergence, scale 0 to 100 (0 no effect, 100 complete control), read-out: Velvetleaf plant response rating): 60%
pest or weed control at 500 g/ha ([8]; post-emergence, Postemergence, scale 0 to 100, read-out: Plant response rating, Velvetleaf): 100%
pest or weed control at 125 g/ha ([8]; pre-emergence, Preemergence, scale 0 to 100 (0 no effect, 100 complete control), read-out: Plant response rating, Velvetleaf): 90%
pest or weed control at 500 g/ha ([8]; pre-emergence, Preemergence, scale 0 to 100 (0 no effect, 100 complete control), read-out: Velvetleaf plant response rating): 100%
pest or weed control at 125 g/ha ([9]; post-emergence, Postemergence, scale 0 to 100 (0 no effect, 100 complete control), read-out: Lambsquarters plant response rating): 100%
pest or weed control at 500 g/ha ([9]; post-emergence, Postemergence, scale 0 to 100, read-out: Plant response rating, Lambsquarters): 100%
pest or weed control at 125 g/ha ([9]; pre-emergence, Preemergence, scale 0 to 100 (0 no effect, 100 complete control), read-out: Plant response rating, Lambsquarters): 100%
pest or weed control at 500 g/ha ([9]; pre-emergence, Preemergence, scale 0 to 100 (0 no effect, 100 complete control), read-out: Lambsquarters plant response rating): 100%
pest or weed control at 125 g/ha ([10]; post-emergence, Postemergence, scale 0 to 100 (0 no effect, 100 complete control), read-out: Barnyardgrass plant response rating): 90%
pest or weed control at 500 g/ha ([10]; post-emergence, Postemergence, scale 0 to 100, read-out: Plant response rating, Barnyardgrass): 90%
pest or weed control at 125 g/ha ([10]; pre-emergence, Preemergence, scale 0 to 100 (0 no effect, 100 complete control), read-out: Plant response rating, Barnyardgrass): 70%
pest or weed control at 500 g/ha ([10]; pre-emergence, Preemergence, scale 0 to 100 (0 no effect, 100 complete control), read-out: Barnyardgrass plant response rating): 90%
pest or weed control at 125 g/ha ([11]; post-emergence, Postemergence, scale 0 to 100 (0 no effect, 100 complete control), read-out: Foxtail, Giant plant response rating): 70%
pest or weed control at 500 g/ha ([11]; post-emergence, Postemergence, scale 0 to 100, read-out: Plant response rating, Foxtail, Giant): 80%
pest or weed control at 125 g/ha ([11]; pre-emergence, Preemergence, scale 0 to 100 (0 no effect, 100 complete control), read-out: Plant response rating, Foxtail, Giant): 30%
pest or weed control at 500 g/ha ([11]; pre-emergence, Preemergence, scale 0 to 100 (0 no effect, 100 complete control), read-out: Foxtail, Giant plant response rating): 90%
pest or weed control at 125 g/ha ([12]; post-emergence, Postemergence, scale 0 to 100 (0 no effect, 100 complete control), read-out: Cocklebur plant response rating): 100%
pest or weed control at 500 g/ha ([12]; post-emergence, Postemergence, scale 0 to 100, read-out: Plant response rating, Cocklebur): 100%
pest or weed control at 125 g/ha ([12]; pre-emergence, Preemergence, scale 0 to 100 (0 no effect, 100 complete control), read-out: Plant response rating, Cocklebur): 90%
pest or weed control at 500 g/ha ([12]; pre-emergence, Preemergence, scale 0 to 100 (0 no effect, 100 complete control), read-out: Cocklebur plant response rating): 100%
pest or weed control at 125 g/ha ([13]; post-emergence, Postemergence, scale 0 to 100 (0 no effect, 100 complete control), read-out: Surinam Grass plant response rating): 90%
pest or weed control at 500 g/ha ([13]; post-emergence, Postemergence, scale 0 to 100, read-out: Plant response rating, Surinam Grass): 90%
pest or weed control at 125 g/ha ([13]; pre-emergence, Preemergence, scale 0 to 100 (0 no effect, 100 complete control), read-out: Plant response rating, Surinam Grass): 40%
pest or weed control at 500 g/ha ([13]; pre-emergence, Preemergence, scale 0 to 100 (0 no effect, 100 complete control), read-out: Surinam Grass plant response rating): 90%
plant injury at 125 g/ha (corn (Zea mays); post-emergence, Postemergence, 125 g ai/ha, scale 0 to 100 (0 no effect, 100 complete control), read-out: Corn plant response rating): 20%
Corn plant response rating (crop injury, 0 = no effect, 100 = complete kill) at 500 g/ha (corn (Zea mays); post-emergence, Postemergence, 500 g ai/ha, scale 0 to 100): 80%
Corn plant response rating (crop injury, 0 = no effect, 100 = complete kill) at 125 g/ha (corn (Zea mays); pre-emergence, Preemergence, 125 g ai/ha, scale 0 to 100 (0 no effect, 100 complete control)): 0%
plant injury at 500 g/ha (corn (Zea mays); pre-emergence, Preemergence, 500 g ai/ha, scale 0 to 100 (0 no effect, 100 complete control), read-out: Corn plant response rating): 80%
pest or weed control at 125 g/ha ([14]; 125 g ai/ha, scale 0 to 100 (0 no effect, 100 complete control), read-out: Blackgrass plant response rating): 50%
pest or weed control at 500 g/ha ([14]; 500 g ai/ha, scale 0 to 100, read-out: Plant response rating, Blackgrass): 80%
pest or weed control at 125 g/ha (wild oat (Avena fatua); 125 g ai/ha, scale 0 to 100 (0 no effect, 100 complete control), read-out: Oat, Wild plant response rating): 40%
pest or weed control at 500 g/ha (wild oat (Avena fatua); 500 g ai/ha, scale 0 to 100, read-out: Plant response rating, Oat, Wild): 70%
